Reference: US9226913B2, “Methods of treating cancer using a combination of an immunomodulatory compound and an artemisinin or a derivative thereof” (Celgene Corporation, priority 2010, dated 2016)

Legend:
KM cells = assay: MTT proliferation assay, 72 hr (Example 6.1); format: cell-based; settings: Homo sapiens, KM (melanoma), 72 hours treatment, mean ± SD of at least 3 experiments
Description: (§1) The human cancer cell lines; MCF7 (breast), HCT116 and SW480 (colon) (Cancer Research UK, London, UK), KM and MJT3 (melanoma) (in house), PANC1 and MIAPaCa (pancreas) (European Collection of Cell Cultures, Salisbury, UK) were grown in either DMEM (Sigma) or RPMI (Sigma) media supplemented with 10% foetal bovine serum, 2 mM L-glutamine, 1% penicillin/streptomycin.
(§2) To study the effect of ATM and ART on cell growth, cells growing exponentially were added to 96-well plates at a density of 3×10^4/well. Drugs (0.1-100 μM) were then added to the wells, ensuring an equal volume of 200 μL across the plate. Cell number/proliferation was measured at 72 hr using a standard methylthiazoletetrazolium (MTT)-based assay without modifications. Briefly, MTT (Sigma) was added to each well to give a working concentration of 0.4 mg/ml, and plates returned to the incubator for a further 1 hr. After this time, the medium was aspirated off, 200 μL of DMSO was then added to each well, and plates agitated gently for 5 min before measuring optical density at 540 nm in each well.

MiaPaCa3 cells = assay: MTT proliferation assay, 72 hr (Example 6.1); format: cell-based; settings: Homo sapiens, MiaPaCa3 (pancreas), 72 hours treatment, mean ± SD of at least 3 experiments
Description: as §1, §2

PANC1 cells = assay: MTT proliferation assay, 72 hr (Example 6.1); format: cell-based, human; settings: for IC50: Homo sapiens, PANC-1, PANC1 (pancreas), 72 hours treatment, MTT, mean ± SD of at least 3 experiments
Description: as §1
as §2, with “Drugs (0.1-100 μM) were then added to the wells, ensuring an equal volume of 200 μL across the plate.” left out

HCT116 cells [1] = assay: MTT proliferation assay, 72 hr (Example 6.1); format: cell-based, human; settings: for IC50: Homo sapiens, HCT-116, HCT116 (colon), 72 hours treatment, MTT, mean ± SD of at least 3 experiments
Description: as §1, §2

MCF7 cells [2] = assay: MTT proliferation assay, 72 hr (Example 6.1); format: cell-based, human; settings: for IC50: MCF7 (breast), 72 hours treatment, MTT, mean ± SD of at least 3 experiments
Description: as §1, §2

MJT3 cells = assay: MTT proliferation assay, 72 hr (Example 6.1); format: cell-based, human; settings: for IC50: Homo sapiens, MJT3 (melanoma), 72 hours treatment, MTT, mean ± SD of at least 3 experiments
Description: as §1, §2

SW480 cells [3] = assay: MTT proliferation assay, 72 hr (Example 6.1); format: cell-based, human; settings: for IC50: Homo sapiens, SW480 (colon), 72 hours treatment, MTT, mean ± SD of at least 3 experiments
Description: as §1, §2

HCT116 cells [4] = assay: Flow cytometric analysis of the cell cycle (Example 6.1); format: cell-based, human
Description: (§3) Cells were cultured with equi-active concentrations (˜IC25) of ART or ATM for 72 hrs, before fixing in 70% (v/v) ethanol in PBS. Following an incubation period of at least 30 mins, cells were washed and re-suspended in a DNA staining solution (1 mg/mL propidium iodide and 1 ng/mL RNAse A (both Sigma). Acquisition of data was performed within 1 h using a Becton Dickinson FACSCalibur (BD Biosciences), and gating was employed to remove doublet artefacts and to discriminate cells from debris. Ten thousand cells were analysed, and the percentages of cells in G1, S and G2/M phases were determined using the cell cycle analysis program WinMDI CellQuest v2.9 (http://facs.scripps.edu/software.html).

MCF7 cells [5] = assay: as above; format: cell-based, human
Description: as §3

SW480 cells [6] = assay: as above; format: cell-based, human; settings: SW480, equi-active (~IC25) concentration, 72 hrs
Description: as §3

Bax [7] = assay: Immunoblotting analysis (Example 6.1); format: cell-based, human; settings: immunoblotting of treated cultures
Description: (§4) Cells were harvested and total cellular protein was solubilised in lysis buffer (New England Biolabs, Hitchin, UK) and resolved by Tris-glycine electrophoresis using a 4-12% bis-tris gradient-gel according to the method of Laemmli (Laemmli UK. 1970. Nature, 227(5259):680-5). Following transfer of proteins to nitrocellulose membranes (0.45 μm), blocking was performed in 5% (w/v) non-fat milk in TTBS [0.5% (v/v) Tween-20 in TBS (50 mM Tris, 150 mM NaCl, pH 8.0)]. Primary antibody probing was performed with anti-p53, anti-p21, anti-Bax, anti-CDK4, anti-cyclin D1 or anti-pRb. All primary antibodies were obtained from New England Biolabs (Hitchin, UK) and used at a dilution of 1:1,000, unless stated otherwise. Anti-GAPDH was used as a loading control (1:2,000—New England). Following five washing steps in TTBS, horseradish peroxidase-conjugated anti-species IgG1 was used as the secondary antibody (Amersham Biosciences Ltd., Little Chalfont, UK). Bands were visualised by the ECL-plus detection system (Amersham).

cyclin D1 and CDK 4 = assay: Immunoblotting analysis (Example 6.1); format: cell-based, human; settings: whole cell lysates, equi-active (~IC25) concentrations, 72 hrs
Description: as §4

p21^waf1cip1 = assay: Immunoblotting analysis (Example 6.1); format: cell-based, human; settings: whole cell lysates, ~IC25, 72 hrs
Description: as §4

pRb = assay: Immunoblotting analysis (Example 6.1); format: cell-based, human; settings: in each cell line (HCT116, SW480, MCF7)
Description: as §4

[8] = system: HCT116, SW480 and MCF7 cells; assay: Combination with OXP at fixed ratio, nature of interaction (Example 6.1); format: cell-based, human; settings: combined with OXP, median effect analysis
From the text: This combination studies followed an approach previously described (Liu et al. 2008, Leuk Lymphoma, 49(9):1800-9).

human cancer cell lines = assay: Trypan blue dye exclusion in parallel to MTT (Example 6.1); format: cell-based; settings: in parallel to the MTT assay; data not shown
Plasmodium falciparum = settings: Haynes 2006; Vivas 2007; Ramharter 2006; cited from earlier work
[9] = Nagelschmitz et al., 2008; cited from earlier work
A549 cells = assay: MTT proliferation assay, 72 hr (Example 6.2); format: cell-based, human; settings: Homo sapiens, A549, 72 h, mean ± SD of at least five experiments
Description: (§5) The human cancer cell lines; MCF7 (breast), HCT116 (colon) and A549 (lung) (Cancer Research UK, London, UK), were grown in either DMEM (Sigma) or RPMI (Sigma) media supplemented with 10% foetal bovine serum, 2 mM L-glutamine, 1% penicillin/streptomycin.
as §2, with “each agent” for “ATM and ART”, “μl” for “μL”, “number” for “number/proliferation”, “modifications as described previously (Gordi et al., 2004, Toxicol. Lett. 147: 99-107).” for “modifications.”

HCT116^norm cells = assay: MTT proliferation assay, 72 hr (Example 6.2); format: cell-based, human; settings: Homo sapiens, 72 h, MTT, mean ± SD of at least five experiments, read-out: IC50
Description: as §5
as §2, with “each agent” for “ATM and ART”, “μl” for “μL”, “number” for “number/proliferation”, “modifications as described previously (Gordi et al., 2004, Toxicol. Lett. 147: 99-107).” for “modifications.”

MCF7 cells [10] = assay: MTT proliferation assay, 72 hr (Example 6.2); format: cell-based, human; settings: Homo sapiens, MCF7, 72 h, mean ± SD of at least five experiments
Description: as §5
as §2, with “each agent” for “ATM and ART”, “μl” for “μL”, “number” for “number/proliferation”, “modifications as described previously (Gordi et al., 2004, Toxicol. Lett. 147: 99-107).” for “modifications.”

Bax [11] = assay: Immunoblotting analysis (Example 6.2); format: cell-based, human
Description: (§6) Cells were harvested and total cellular protein was solubilised in lysis buffer (New England Biolabs, Hitchin, UK) and resolved by Tris-glycine electrophoresis using a 4-12% bis-tris gradient-gel. Following transfer of proteins to 0.45 μm nitrocellulose membranes, blocking was performed in 5% (w/v) non-fat milk in TTBS [0.5% (v/v) Tween-20 in TBS (50 mM Tris, 150 mM NaCl, pH 8.0)]. Primary antibody probing was performed with anti-p21, anti-Bax, anti-CDK4, anti-cyclin D1, anti-pRb or anti-cyclin B1. All primary antibodies were obtained from New England Biolabs (Hitchin, UK) and used at a dilution of 1:1,000, unless stated otherwise. Anti-GAPDH was used as a loading control (1:2,000—New England). Following three washing steps in TTBS, horseradish peroxidase-conjugated anti-species IgG was used as the secondary antibody (Amersham Biosciences Ltd., Little Chalfont, UK). Bands were visualised by the ECL-plus detection system (Amersham).

cyclin B = assay: Immunoblotting analysis (Example 6.2); format: cell-based, human
Description: as §6

HCT116^poly cells = assay: MTT proliferation assay, 72 hr (Example 6.2); format: cell-based, human; settings: Homo sapiens, HCT116^poly (polyploid extended-passage variant)
Description: as §2, with “each agent” for “ATM and ART”, “μl” for “μL”, “number” for “number/proliferation”, “modifications as described previously (Gordi et al., 2004, Toxicol. Lett. 147: 99-107).” for “modifications.”

[12] = system: all the cell lines (A549, HCT116^norm, MCF7); assay: Effect of low LEN concentrations alone on cell numbers and viabilities (Example 6.2); format: cell-based, human; settings: LEN alone at 0.1 and 1 μM
Description: Median-effect analysis of combination requires the extrapolation of an IC50-value. Where this was not possible, the inventors explored the effect of combining drugs by fixing the concentration of GEM or LEN (modulating agent) and testing its ability to influence the activity of ART (drug partner). […] ART was diluted in growth medium and added to the plates in a range of drug concentrations to allow determination of IC50. The effect on these IC50 values of co-culture with a sub-optimal concentration (˜IC20) of GEM or LEN was then tested. Cell numbers at 72 hr were assessed by the MTT assay as previously described. This enabled the assessment of the nature of any drug-drug interaction by comparing the IC50 for ART in the presence and absence of the combinatorial drug partner.
The lack of a dose-response in the cells rendered the primary model of drug-drug interaction ineffectual for combinations of ART with LEN. For this reason the inventors next tested the ability of LEN to sensitise cells to ART. These combinatorial analyses were performed in all the cell lines using a smaller concentration of LEN (0.1 and 1 μM). These concentrations had little effect on cell numbers and viabilities.

C[C@@H]1CC[C@H]2[C@@H](C)C(=O)O[C@@H]3O[C@@]4(C)CC[C@@H]1[C@]32OO4 [Artemisinin, artemisinin]
IC50 (KM cells): 101 ± 15 µM
IC50 (MiaPaCa3 cells): 31 ± 13 µM
IC50 (PANC1 cells): > 1000 µM
IC50 (HCT116 cells [1]): 204 ± 88 µM
IC50 (MCF7 cells [2]; Homo sapiens, MCF7, 72 h): 44 ± 15 µM
IC50 (MJT3 cells): > 1000 µM
IC50 (SW480 cells [3]): 156 ± 38 µM

C[C@H]1[C@H](N2CCS(=O)(=O)CC2)O[C@@H]2O[C@@]3(C)CC[C@H]4[C@H](C)CC[C@@H]1[C@@]24OO3 [Artemisone, artemisone]
IC50 (KM cells): 6.4 ± 2.1 µM
IC50 (MiaPaCa3 cells): 14 ± 10 µM
IC50 (PANC1 cells): > 1000 µM
impact on cell number (PANC1 cells; p53-mutant, resistant PANC1 cell line): neither drug had an impact
susceptibility to ATM relative to ART (HCT116 cells [1]; HCT116, comparison of IC50): around 30 ×
IC50 (HCT116 cells [1]): 9.5 ± 0.9 µM
IC50 (MCF7 cells [2]; Homo sapiens, MCF7, 72 h): 0.5 µM
IC50 less for ATM than its precursor ART (MCF7 cells [2]; MCF7): around 80 fold
IC50 (MCF7 cells [2]): 0.56 ± 0.17 µM
IC50 (MJT3 cells): 30 ± 26 µM
effect on cell number (MJT3 cells; MJT3 cells, MTT 72 hr): significantly reduced cell number
IC50 (SW480 cells [3]): 4.5 ± 1.6 µM
susceptibility to ATM relative to ART (SW480 cells [3]; SW480, comparison of IC50): around 30 ×
apoptotic/sub-G1 phase of the cell cycle (HCT116 cells [4]; HCT116, equi-active (~IC25) concentration, 72 hrs): no increase
distribution of cells within the G1, S and G2 phases (HCT116 cells [4]; HCT116, ~IC25, 72 hrs): did not alter the distribution
apoptotic/sub-G1 phase of the cell cycle (MCF7 cells [5]; MCF7, equi-active (~IC25) concentration, 72 hrs): no increase
cell cycle effect (MCF7 cells [5]; MCF7, ~IC25, 72 hrs): G1-selective blockade
cells in G1 (MCF7 cells [5]; MCF7, ~IC25, 72 hrs, untreated 63±4.40%, p=0.015): 83±5.5%
apoptotic/sub-G1 phase of the cell cycle (SW480 cells [6]): no increase
pro-apoptotic protein Bax (Bax [7]): no increase
levels of cyclin D1 and its associated CDK 4 (cyclin D1 and CDK 4): significantly reduced
levels of the general CDK inhibitor p21^waf1cip1 (p21^waf1cip1): generally unchanged
levels of pRb (pRb): dramatic reduction
nature of interaction with OXP [8]: additive interaction
cell viability (trypan blue dye exclusion) (human cancer cell lines): did not affect cell viability
activity against Plasmodium falciparum compared with other antimalarial drugs (Plasmodium falciparum): significantly more active
toxicity [9]: almost negligible toxicity

C[C@H]1[C@H](OC(=O)CCC(=O)O)O[C@@H]2O[C@@]3(C)CC[C@H]4[C@H](C)CC[C@@H]1[C@@]24OO3 [Artesunate, artesunate]
IC50 (A549 cells): 9.8 ± 1.7 µM
IC50 (HCT116^norm cells): 1.92 ± 0.35 µM
IC50 (MCF7 cells [10]): 2.3 ± 0.94 µM
BAX level (Bax [11]; HCT116^norm cells): no effect
BAX level (Bax [11]; HCT116^poly cells): decrease
cyclin B level (cyclin B; HCT116^norm cells): decrease
cyclin B level (cyclin B; HCT116^poly cells): increase

Nc1ccn([C@@H]2O[C@H](CO)[C@@H](O)C2(F)F)c(=O)n1 [Gemcitabine, gemcitabine]
IC50 (A549 cells): 14 ± 1.6 µM
IC50 (MCF7 cells [10]): 1.9 ± 0.75 µM
IC50 (HCT116^poly cells): 15 µM

Nc1cccc2c1CN(C1CCC(=O)NC1=O)C2=O (stereo not drawn) [Lenalidomide, 1-oxo-2-(2,6-dioxopiperidin-3-yl)-4-aminoisoindoline]
IC50 (A549 cells): > 100 µM
IC50 (HCT116^norm cells): > 100 µM
IC50 (MCF7 cells [10]): > 100 µM
effect on cell numbers and viabilities [12]: little effect
